Experimental data from patent publication US10131652B2, “Pyrimidinyloxy benzene derivatives as herbicides” (E. I. DU PONT DE NEMOURS AND COMPANY, priority 2014, dated 2018).

Columns and labels:
Assay type in all cases: in vivo
[1] = tested on: giant foxtail (Setaria faberii); assay: Test D pre-/postemergence plant response; settings: Postemergence
In short: (§1)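 Two application timings were run together: preemergence onto seeded loam–sand pots, and postemergence onto 1- to 4-leaf plants (2 to 18 cm) in peat/vermiculite medium with starter nutrients. Formulation was a non-phytotoxic solvent with surfactant. Ratings, 0 to 100, were made visually versus controls after 13 to 15 greenhouse days.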

[2] = tested on: morningglory (Ipomoea coccinea); assay: Test D pre-/postemergence plant response; settings: Postemergence
In short: as §1

[3] = tested on: yellow nutsedge (Cyperus esculentus); assay: Test D pre-/postemergence plant response; settings: Postemergence
In short: as §1

[4] = tested on: soybean (Glycine max); assay: Test D pre-/postemergence plant response; settings: Postemergence
In short: as §1

[5] = tested on: waterhemp (common waterhemp, Amaranthus rudis); assay: Test D pre-/postemergence plant response; settings: Postemergence
In short: as §1

[6] = tested on: barnyardgrass (Echinochloa crus-galli); assay: Test D pre-/postemergence plant response; settings: Postemergence
In short: as §1

[7] = tested on: corn (Zea mays); assay: Test D pre-/postemergence plant response; settings: Postemergence
In short: as §1

[8] = tested on: pigweed (Amaranthus retroflexus); assay: Test D pre-/postemergence plant response; settings: Postemergence
In short: as §1

[9] = tested on: oilseed rape (Brassica napus); assay: Test D pre-/postemergence plant response; settings: Postemergence
In short: as §1

[10] = tested on: Italian ryegrass (Lolium multiflorum); assay: Test D pre-/postemergence plant response; settings: Postemergence
In short: as §1

[11] = tested on: ragweed (common ragweed, Ambrosia elatior); assay: Test D pre-/postemergence plant response; settings: Postemergence
In short: as §1

[12] = tested on: chickweed (common chickweed, Stellaria media); assay: Test D postemergence plant response
In short: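 Visual 0–100 rating vs controls (0 = no effect, 100 = complete control), scored 13–15 d after postemergence spray. Plants 1- to 4-leaf stage (2–18 cm), potted in peat/vermiculite mix, kept in greenhouse.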

[13] = tested on: galium (catchweed bedstraw, Galium aparine); assay: Test B postemergence plant response
In short: (§2)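 Values are visual control ratings (0 to 100) recorded approximately 10 days after postemergence application to greenhouse-grown plants of 2 to 10 cm, one- to two-leaf stage, each judged against untreated controls.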

[14] = tested on: blackgrass (Alopecurus myosuroides); assay: Test B postemergence plant response
In short: as §2

[15] = 125 g ai/ha, postemergence, 0 to 100 scale, 0 no effect, 100 complete control
[16] = Postemergence, 31 g ai/ha, 0 to 100 scale (0 no effect, 100 complete control)

## CC(F)(F)c1cc(-c2ccccc2Oc2ncc(Cl)cn2)no1 [Compound 220]
[1]; 2 g ai/ha
  Plant response rating (scale 0 to 100), Foxtail, Giant: 0
[1]; 4 g ai/ha
  Plant response rating (scale 0 to 100), Foxtail, Giant: 5
[1]; 8 g ai/ha
  Plant response rating (scale 0 to 100), Foxtail, Giant: 5
[1]; 16 g ai/ha
  Plant response rating (scale 0 to 100), Foxtail, Giant: 5
[2]; 2 g ai/ha
  Plant response rating (scale 0 to 100), Morningglory: 35
[2]; 4 g ai/ha
  Plant response rating (scale 0 to 100), Morningglory: 15
[2]; 8 g ai/ha
  Plant response rating (scale 0 to 100), Morningglory: 25
[2]; 16 g ai/ha
  Plant response rating (scale 0 to 100), Morningglory: 75
[3]; 2 g ai/ha
  Plant response rating (scale 0 to 100), Nutsedge, Yellow: 0
[3]; 4 g ai/ha
  Plant response rating (scale 0 to 100), Nutsedge, Yellow: 0
[3]; 8 g ai/ha
  Plant response rating (scale 0 to 100), Nutsedge, Yellow: 0
[3]; 16 g ai/ha
  Plant response rating (scale 0 to 100), Nutsedge, Yellow: 5
[4]; 2 g ai/ha
  Plant response rating (scale 0 to 100), Soybean: 15
[4]; 4 g ai/ha
  Plant response rating (scale 0 to 100), Soybean: 10
[4]; 8 g ai/ha
  Plant response rating (scale 0 to 100), Soybean: 10
[4]; 16 g ai/ha
  Plant response rating (scale 0 to 100), Soybean: 10
[5]; 2 g ai/ha
  Plant response rating (scale 0 to 100), Waterhemp: 15
[5]; 4 g ai/ha
  Plant response rating (scale 0 to 100), Waterhemp: 60
[5]; 8 g ai/ha
  Plant response rating (scale 0 to 100), Waterhemp: 70
[5]; 16 g ai/ha
  Plant response rating (scale 0 to 100), Waterhemp: 80
[6]; 2 g ai/ha
  Plant response rating (scale 0 to 100), Barnyardgrass: 5
[6]; 4 g ai/ha
  Plant response rating (scale 0 to 100), Barnyardgrass: 5
[6]; 8 g ai/ha
  Plant response rating (scale 0 to 100), Barnyardgrass: 10
[6]; 16 g ai/ha
  Plant response rating (scale 0 to 100), Barnyardgrass: 10
[7]; 2 g ai/ha
  Plant response rating (scale 0 to 100), Corn: 0
[7]; 4 g ai/ha
  Plant response rating (scale 0 to 100), Corn: 5
[7]; 8 g ai/ha
  Plant response rating (scale 0 to 100), Corn: 5
[7]; 16 g ai/ha
  Plant response rating (scale 0 to 100), Corn: 5
[8]; 2 g ai/ha
  Plant response rating (scale 0 to 100), Pigweed: 70
[8]; 4 g ai/ha
  Plant response rating (scale 0 to 100), Pigweed: 75
[8]; 8 g ai/ha
  Plant response rating (scale 0 to 100), Pigweed: 80
[8]; 16 g ai/ha
  Plant response rating (scale 0 to 100), Pigweed: 85
[9]; 2 g ai/ha
  Plant response rating (scale 0 to 100), Oilseed Rape: 0
[9]; 4 g ai/ha
  Plant response rating (scale 0 to 100), Oilseed Rape: 5
[9]; 8 g ai/ha
  Plant response rating (scale 0 to 100), Oilseed Rape: 5
[9]; 16 g ai/ha
  Plant response rating (scale 0 to 100), Oilseed Rape: 10
[10]; 2 g ai/ha
  Plant response rating (scale 0 to 100), Ryegrass, Italian: 0
[10]; 4 g ai/ha
  Plant response rating (scale 0 to 100), Ryegrass, Italian: 0
[10]; 8 g ai/ha
  Plant response rating (scale 0 to 100), Ryegrass, Italian: 0
[10]; 16 g ai/ha
  Plant response rating (scale 0 to 100), Ryegrass, Italian: 0
[11]; 2 g ai/ha
  Plant response rating (scale 0 to 100), Ragweed: 5
[11]; 4 g ai/ha
  Plant response rating (scale 0 to 100), Ragweed: 15
[11]; 8 g ai/ha
  Plant response rating (scale 0 to 100), Ragweed: 15
[11]; 16 g ai/ha
  Plant response rating (scale 0 to 100), Ragweed: 25
[12]; 2 g ai/ha
  Plant response rating (scale 0 to 100), Chickweed: 5
[12]; 4 g ai/ha
  Plant response rating (scale 0 to 100), Chickweed: 10
[12]; 8 g ai/ha
  Plant response rating (scale 0 to 100), Chickweed: 40
[12]; 16 g ai/ha
  Plant response rating (scale 0 to 100), Chickweed: 40
[13]; [15]
  Plant response rating, Galium: 100
[13]; [16]
  Plant response rating, Galium: 90
[14]; [15]
  Plant response rating, Blackgrass: 90
[14]; [16]
  Plant response rating, Blackgrass: 60
